Data: patent US20090005385A1, “Treatment or Prevention of Cancer or Cardiovascular Disease with Methenyltetrahydrofolate Synthetases” (CORNELL RESEARCH FOUNDATION, INC., priority 2004, published 2009)

Key:
cell cultures = details: substrate for FPGS; cited from earlier work
MTHFS = experiment: Inhibition of MTHFS-catalyzed conversion of 5-formylTHF to 5,10-methenylTHF (spectrophotometric assay); type: biochemical
Method: Tissue samples were sonicated four times for 15 s in a buffer containing 100 mM HEPES pH 7.0, 100 mM sodium chloride, 5 mM EDTA, 1% Tween-20. The solution was clarified by centrifugation. MTHFS activity was determined using a spectrophotometer by monitoring the appearance of 5,10-methenyltetrahydrofolate, which has an absorbance maximum at 355 nm. For a typical assay, 50 μL of clarified tissue supernatant was added to a quartz cuvette containing 100 μM (6S)-5-formylTHF, 1 mM Mg-ATP and 100 mM MES, pH 6.0 and the rate of 5,10-methenylTHF formation was quantified. Activity measurements were normalized to total protein that was quantified using the Lowry-Bensadoun method (Bensadoun et al., “Assay of Proteins in the Presence of Interfering Materials,” Anal Biochem 70:241-250 (1976), which is hereby incorporated by reference in its entirety).
The UV spectrum of purified rabbit liver MTHFS differs from the spectrum of recombinant mouse MTHFS (FIG. 4). Therefore, it was investigated whether rabbit liver MTHFS could be reconstituted with NADA resulting in a change in the UV spectrum of the protein. […]

MCF-7 cells [1] = experiment: Folate turnover in cultured cells (pulse-chase); type: cell-based, human; details: 20 μM in chase medium
Method: Cell monolayers at 75% confluence were washed with PBS, then labeled for 12 h in defined αMEM lacking folate and glycine and supplemented with 25 nM (6S)-[^3H]5-formylTHF. For the chase, cell monolayers were washed with 10 ml of PBS, trypsinized, and pelleted by centrifugation. The cells were seeded in triplicate (1×10^6 cells) into 100 mm culture plates containing 10 ml of defined αMEM supplemented with 2 μM folic acid. Catecholamines (20 μM dopamine, NADA, and L-dopa) were prepared freshly and added to the chase media prior to the addition of labeled cells. Cells were harvested at defined time points, the medium was removed and the tritium in the medium was quantified. The cell monolayers were washed with PBS and lysed with 0.2 M ammonium hydroxide. Tritium remaining in the cells was quantified using a Beckman LS 8100 liquid scintillation counter.
Catecholamine availability may be rate limiting for MTHFS-catalyzed folate catabolism in MCF-7 cells. The effects of exogenous catecholamines on folate turnover rates were determined using pulse-chase analyses in MCF-7 cells. Folate turnover in MCF-7 cells labeled with [^3H]-5-formylTHF is biphasic, with an initial rapid phase of turnover followed by a slower phase (Anguera et al., J. Biol. Chem. 278:29856-29862 (2003), which is hereby incorporated by reference in its entirety). Addition of 20 μM NADA to the chase medium increased the magnitude of the rapid phase of folate turnover by 12% compared to untreated cells (FIG. 11A). […] To distinguish between these two mechanisms, 20 μM dopamine and L-dopa were added to the chase medium. Dopamine is the precursor of NADA, and both dopamine and L-dopa can function as oxidants following oxidation of their diphenolic ring generating dopamine-quinone or dopa-quinone (Rescigno et al., Biochemical Pharmacology 56:1089-1096 (1998); Graham, D. G. Mol. Pharmacol. 14:633-643 (1978), which are hereby incorporated by reference in their entirety). […] The addition of dopamine to the culture medium increased the magnitude of the rapid phase of folate turnover by only 4% relative to untreated cells (FIG. 11A). The minor effect of dopamine on folate turnover may reflect N-acetyltransferase-mediated dopamine acetylation that generating NADA. […] In summary, the pulse chase experiments indicate that NADA may be limiting for in vivo folate catabolism, and NADA may function specifically as the electron acceptor molecule for MTHFS-mediated folate catabolism.

MCF-7 cells [2] = experiment: Radiolabeled folate accumulation in cultured cells treated with catecholamines; type: cell-based, human; details: 12 h, 25 nM (6S)-[^3H]-5-formylTHF, 0-150 μM catecholamine
Method: (§1) Cell monolayers at 70% confluence in 6-well plates were labeled for 12 h in defined αMEM lacking folate and glycine, but supplemented with 25 nM (6S)-[^3H]5-formylTHF and 0, 25 μM, 50 μM, 75 μM, 100 μM, or 150 μM NADA, dopamine, or epinephrine. Cells were harvested by washing with 5 mL PBS, trypsinized, and pelleted by centrifugation and viable cells (determined by their ability to exclude trypan blue) were quantified. The cell pellets were lysed with 0.2 M ammonium hydroxide, and the intracellular tritium was quantified using a Beckman LS 8100 liquid scintillation counter.
Because the addition of NADA to the chase medium increased folate turnover rates in MCF-7 cells, the effects of various catecholamines on [^3H]folate accumulation was investigated. Cells were cultured for 12 h in defined αMEM medium containing 25 nM (6S)-[^3H]-5-formylTHF and various concentrations of NADA, dopamine, and epinephrine, and cellular [^3H]folate content was determined.

MCF-7 cells [3] = experiment: Cell viability (trypan blue) after catecholamine treatment; type: cell-based, human; details: 12 h, various concentrations
Method: FIG. 12A-B show the effect of NADA, dopamine, and epinephrine on folate accumulation and cell viability in MCF-7 cells. MCF-7 cells were incubated with 25.0 nM (6S)-[^3H]5-formylTHF and various concentrations of NADA, dopamine, and epinephrine for 12 h, then viable cells were quantified using trypan blue staining. […] All values were normalized to cpm for untreated cells, and untreated cells were given an arbitrary value of 100%. […] Cell viability is expressed as the percent of viable cells divided by the total number of cells. Total [^3H]folate compounds were quantified in cell lysates by liquid scintillation. All values represent quadruplicate measures, and error bars are standard deviations of the mean.
as §1

mouse enzyme GARFT = mouse enzyme GARFT (Mus musculus, UniProt Q64737); details: read-out: Ki mouse GARFT; cited from earlier work
Chain of mouse enzyme GARFT (Q64737 whole entry): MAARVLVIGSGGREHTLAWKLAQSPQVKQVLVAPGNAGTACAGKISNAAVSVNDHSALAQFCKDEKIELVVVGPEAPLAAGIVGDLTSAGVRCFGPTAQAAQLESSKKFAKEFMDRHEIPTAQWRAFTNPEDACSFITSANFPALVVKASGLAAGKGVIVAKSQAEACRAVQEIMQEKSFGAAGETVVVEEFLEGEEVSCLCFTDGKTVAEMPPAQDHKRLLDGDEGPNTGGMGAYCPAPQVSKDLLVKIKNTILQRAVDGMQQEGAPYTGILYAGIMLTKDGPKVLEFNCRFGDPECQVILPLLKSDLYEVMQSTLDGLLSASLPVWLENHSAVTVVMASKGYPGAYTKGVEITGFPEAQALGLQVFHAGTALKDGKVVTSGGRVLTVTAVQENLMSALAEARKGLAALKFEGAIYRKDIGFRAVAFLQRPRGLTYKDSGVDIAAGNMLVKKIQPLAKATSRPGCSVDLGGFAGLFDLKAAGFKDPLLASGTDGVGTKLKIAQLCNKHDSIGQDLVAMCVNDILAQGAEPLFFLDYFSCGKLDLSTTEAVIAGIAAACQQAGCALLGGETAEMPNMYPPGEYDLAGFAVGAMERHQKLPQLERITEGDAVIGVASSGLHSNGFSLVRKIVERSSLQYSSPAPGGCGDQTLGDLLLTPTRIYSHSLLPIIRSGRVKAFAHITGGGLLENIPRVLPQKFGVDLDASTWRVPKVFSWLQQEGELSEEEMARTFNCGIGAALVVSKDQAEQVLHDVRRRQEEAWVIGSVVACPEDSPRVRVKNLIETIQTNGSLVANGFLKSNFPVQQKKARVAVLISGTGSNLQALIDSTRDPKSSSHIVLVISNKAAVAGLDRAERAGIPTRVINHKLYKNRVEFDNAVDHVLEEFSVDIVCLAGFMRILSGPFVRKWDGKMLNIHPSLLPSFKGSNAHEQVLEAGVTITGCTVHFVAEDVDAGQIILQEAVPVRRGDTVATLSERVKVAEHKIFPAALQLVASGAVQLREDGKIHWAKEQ

[4] = molecular target: T1, recombinant mouse MTHFS protein (Mus musculus, UniProt Q9D110); details: equilibrium binding
T1 sequence (Q9D110 1-203): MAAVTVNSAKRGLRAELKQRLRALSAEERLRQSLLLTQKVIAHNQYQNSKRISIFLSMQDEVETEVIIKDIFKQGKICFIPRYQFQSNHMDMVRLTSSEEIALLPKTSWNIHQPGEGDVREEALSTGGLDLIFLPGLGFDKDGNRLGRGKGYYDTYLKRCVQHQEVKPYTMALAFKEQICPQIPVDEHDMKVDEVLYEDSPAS

## Nc1nc(N)c(CCCC(C=O)c2ccc(C(=O)N[C@@H](CCC(=O)O)C(=O)O)cc2)c(=O)[nH]1 (stereo partly shown) [10-formyl-DDACTHF, 10-formyl-5,10-dideaza-acyclicTHF]
Cell cultures
  accumulation in cell cultures: over 100 fold

## CC(=O)NCCc1ccc(O)c(O)c1 [NADA, N-acetyldopamine]
MTHFS
  inhibition of MTHFS-catalyzed conversion of 5-formylTHF to 5,10-methenylTHF: did not inhibit
MCF-7 cells [1]
  increase in magnitude of the rapid phase of folate turnover compared to untreated cells: 12%
  slow phase of folate turnover relative to untreated cells: did not change
MCF-7 cells [2]
  [^3H]folate accumulation: decreased [^3H]folate accumulation in a dose-dependent manner
MCF-7 cells [3]
  cell viability: NADA-induced cell death

## Nc1nc2c(c(=O)[nH]1)C[C@@H](CCc1ccc(C(=O)N[C@@H](CCC(=O)O)C(=O)O)cc1)CN2 [DDATHF, 5,10-dideazatetrahydrofolate]
Mouse enzyme GARFT
  Ki: 6 nM

## NCCc1ccc(O)c(O)c1 [dopamine]
MCF-7 cells [1]
  increase in magnitude of the rapid phase of folate turnover compared to untreated cells: 4%
MCF-7 cells [2]
  [^3H]folate accumulation: Neither the addition of dopamine nor epinephrine to culture media impaired [^3H]folate accumulation
[4]
  binding to recombinant mouse MTHFS protein: neither dopamine nor oxidized dopamine bind
